The term GI50 denotes the concentration at which growth is held to half of that of the control. Higher therefore signals lower sensitivity of the cells.

A value given as a limit tells only on which side of the number the result lay.

This assay concerns MV4-11. In words: Antiproliferative activity against human MV4-11 cells after 7 days by cell titer glo assay. In kind it is functional. The following applies: MV4-11, 168 h. Background: In ATP-based viability assays light output follows the ATP content of the culture.

As for `O=C(Cc1ccc(Cl)c(Cl)c1)N[C@@H]1CCc2ccc(-c3cn4c(n3)CCC4)cc21`, the GI50 was 8.89 µM.

Take `COc1cc(C(=O)N[C@@H]2CCCc3ccc(-c4cn5c(n4)CCC5)cc32)ccc1C`: halving of growth (GI50) required 22.3 µM.

`Cc1cc(C(=O)N[C@@H]2CCc3ccc(-c4cn5c(n4)CCC5)cc32)ccn1` returned a GI50 of over 30 µM.

For `COc1cc(C(=O)N[C@@H]2CCc3ccc(-c4cn5c(n4)CCC5)cc32)cc(OC)c1C`, the GI50 stood at 7.25 µM.
